# Results from patent publication US20250042916A1 (ACONCAGUA BIO, INC., priority 2023, published 2025).
# Experiments:
# Type in all cases: cell-based
# [1] = molecular target: human calcitonin receptor (CTR) and RAMP3 (AMY3) in COS-7 cells (Homo sapiens, UniProt O60896+P30988); test: Amylin Receptor cAMP Assay II; details: value marked **: Amylin Receptor cAMP Assay II; COS-7/AMY3 cells; read-out: Amylin Receptor cAMP Stimulation Activity: EC50
# Excerpt: Amylin Receptor cAMP Assay II
# AMYRs are heterodimers of the class B calcitonin (CT) G-protein-coupled receptor (CTR) and receptor activity-modifying proteins (RAMPs). All three RAMPs can interact with the CTR and form AMY1, AMY2, AMY3 with RAMP1, RAMP2 and RAMP3, respectively. Like other class B1 GPCRs, the CT receptor family is canonically coupled to Gs-mediated cAMP production, and measurement of cAMP accumulation has been the primary assay used to determine peptide selectivity and potency.
# To optimize functional activity directed toward Gas coupling, COS-7 cells were stably transfected with human calcitonin receptor (CTR) and RAMP3, simultaneously. 100× concentration of compound working solutions were prepared with 4-fold serial dilution in 384-well Echo LDV plate (Labcyte, Cat #LP-0200-BC). 200 nL/well 100× concentration of compound working solutions were moved to 384-well white microplate (Perkin Elmer, Cat #6007680) using Labcyte ECHO550. […]
# After incubation, the cAMP assay signal was generated using cAMP dynamic 2 kit (Revvity, Cat #62AM4PEC). […] The samples were then incubated at room temperature for 1 hour protected from light. the fluorescence was read at 665 and 615 nm with Reader PerkinElmer EnVision 2105.
# [2] = molecular target: T1, human calcitonin receptor (CTR) in COS-7 cells (Homo sapiens, UniProt P30988); test: Calcitonin Receptor (CTR) cAMP Assay; details: COS7-human CTR Clone #2 cells; read-out: Calcitonin Receptor cAMP Stimulation Activity: EC50
# T1 construct: expressed in transfected cells; host or cells: COS-7 (COS7-human CTR Clone #2)
# T1 sequence (P30988 25-474): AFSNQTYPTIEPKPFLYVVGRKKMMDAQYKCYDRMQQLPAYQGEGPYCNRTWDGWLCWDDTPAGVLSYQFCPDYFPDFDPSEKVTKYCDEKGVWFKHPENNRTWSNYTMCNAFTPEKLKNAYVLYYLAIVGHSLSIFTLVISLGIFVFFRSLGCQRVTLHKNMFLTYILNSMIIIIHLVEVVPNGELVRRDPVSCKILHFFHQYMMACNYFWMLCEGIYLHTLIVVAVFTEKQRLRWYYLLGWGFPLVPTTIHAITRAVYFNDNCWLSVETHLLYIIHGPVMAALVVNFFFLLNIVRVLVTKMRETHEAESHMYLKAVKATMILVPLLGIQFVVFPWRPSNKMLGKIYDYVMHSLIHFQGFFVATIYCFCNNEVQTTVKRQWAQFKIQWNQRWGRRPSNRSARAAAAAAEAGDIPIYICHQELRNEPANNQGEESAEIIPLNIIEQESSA
# Excerpt: Calcitonin Receptor (CTR) cAMP Assay
# The calcitonin receptor (CTR) belongs to the subfamily of GPCRs known as the secretin or ‘B’ family of GPCRs. Like other class B1 GPCRs, the CT receptor family is canonically coupled to Gs-mediated cAMP production, and measurement of cAMP accumulation has been the primary assay used to determine peptide selectivity and potency.
# (§1) To optimize functional activity directed toward Gas coupling, COS-7 cells were stably transfected with human calcitonin receptor (CTR) to create COS7-human CTR Clone #2 stable cell line. 100× concentration of compound working solutions were prepared with 4-fold serial dilution in 384-well Echo LDV plate (Labcyte, Cat #LP-0200-BC). 200 nL/well 100× concentration of compound working solutions were moved to 384-well white microplate (Perkin Elmer, Cat #6007680) using Labcyte ECHO550. 1×10^5 cells/mL COS7-human CTR Clone #2 cell suspensions prepared with assay buffer [HBSS containing 20 mM HEPES (Gibco, Cat #15630-080), 0.5 mM IBMX (Sigma, Cat #15879) and 0.1% Casein (Sigma, Cat #C4765)], 20 μL cell suspensions were added to each well of previous generated assay plate which already contains 200 nL compound at 100× concentration using ThermoFisher Multidrop Combi (2000 cells/well). Seal the plate and incubate at 37° C. with 5% CO2 for 30 min.
# (§2) After incubation, the cAMP assay signal was generated using cAMP dynamic 2 kit (Revvity, Cat #62AM4PEC). 10 μL cAMP-d2 working solution was added to each well, followed by 10 L Anti-cAMP antibody-cryptate working solution which was added to each well using CERTUS FLEX LIQUID DISPENSER. The samples were then incubated at room temperature for 1 hour protected from light. the fluorescence was read at 665 and 615 nm with Reader PerkinElmer EnVision 2105.
# Amylin Receptor = Amylin Receptor (Homo sapiens, UniProt O60896+P30988); test: Amylin Receptor cAMP stimulation, assay version (I or II) not marked; details: values without footnote mark; assay I or II not stated
# Amylin Receptor, sequence (O60896 24-148, one chain of several): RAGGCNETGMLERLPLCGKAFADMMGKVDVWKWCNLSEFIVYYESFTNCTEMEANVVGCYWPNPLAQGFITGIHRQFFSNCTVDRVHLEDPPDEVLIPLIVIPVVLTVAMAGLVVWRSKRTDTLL
# Protocol: To optimize functional activity directed toward Gas coupling, COS-7 cells were stably transfected with human calcitonin receptor (CTR) and RAMP3, simultaneously. 100× concentration of compound working solutions were prepared (Agilent Technologies Bravo) with 4-fold serial dilution in 384-well Echo LDV plate (Labcyte, Cat #LP-0200). 100 nL/well 100× concentration of compound working solutions were moved to 384-well white low volume plate (Greiner, Cat #784075) using Labcyte ECHO550. 1×10^5 cells/mL COS-7/CTR or COS-7/AMY3 (HD Biosciences) cell suspensions prepared with assay buffer [DPBS containing 0.5 mM IBMX (Sigma, Cat #15879) and 0.1% BSA (GENVIEW, Cat #FA016-100 g)], 10 μL cell suspensions were added to each well of previous generated assay plate which already contains 100 nL compound at 100× concentration using ThermoFisher Multidrop Combi (1000 cells/well). Seal the plate and incubate at 37° C. with 5% CO2 for 30 min.
# as §2, with “Hi-range Kit (Cisbio). 5” for “dynamic 2 kit (Revvity, Cat #62AM4PEC). 10”, “5 μL” for “10 L”, “ThermoFisher Multidrop Combi.” for “CERTUS FLEX LIQUID DISPENSER.”, “EnVision.” for “EnVision 2105.”
# as §1, with “and RAMP3, simultaneously.” for “to create COS7-human CTR Clone #2 stable cell line.”, “COS-7/AMY3” for “COS7-human CTR Clone #2”
# as §2, with “10 μL” for “10 L”
# human calcitonin receptor (CTR) and RAMP3 (AMY3) in COS-7 cells, sequence (O60896 24-148, one chain of several): as above
Compound,EC50 [1],EC50 [2],EC50 (Amylin Receptor)
"Cc1nnc(-c2c(CCC3CCN(C(=O)OCc4ccccc4)CC3)nc(CC(C)C)c(C(N)=O)c2-c2ccc(C(=O)NCc3ccc(F)c(F)c3)s2)o1 [Compound 205, Benzyl 4-[2-[5-carbamoyl-4-[5-[(3,4-difluorophenyl)methylcarbamoyl]-2-thienyl]-6-isobutyl-3-(5-methyl-1,3,4-oxadiazol-2-yl)-2-pyridyl]ethyl]piperidine-1-carboxylate]",66 nM,6 nM,–
"COc1cccc2c1CC[C@H]2Nc1nccc2cc(-c3c(C(N)=O)c(CC(C)C)nc(CCC4CCOCC4)c3-c3nnc(C)o3)sc12 [Compound 208, 4-{7-[(R)-4-methoxy-1-indanylamino]-1-thia-6-aza-2-indenyl}-2-isobutyl-5-(5-methyl-1,3,4-oxadiazol-2-yl)-6-[2-(tetrahydro-2H-pyran-4-yl)ethyl]nicotinamide]",–,0.581 nM,18.9 nM
"CCc1nc(CC(C)C)c(C(N)=O)c(-c2cc3ccnc(N[C@@H]4CCc5ccc(F)cc54)c3s2)c1-c1nnc(C)o1 [Compound 209, 4-{7-[(R)-6-fluoro-1-indanylamino]-1-thia-6-aza-2-indenyl}-6-ethyl-2-isobutyl-5-(5-methyl-1,3,4-oxadiazol-2-yl)nicotinamide]",–,–,96.9 nM
